Holding throughout (assay type): functional
Assay [1] has as its system Hepatitis B virus. In words: Antiviral activity against Hepatitis B virus infected in human HepG2.2.15 cells assessed as inhibition of HBeAg secretion at 5 uM after 9 days by ELISA relative to control. To be noted: HepG2.2.15, 216 h. A general note: ELISA stands for enzyme-linked immunosorbent assay.
Assay [2] relates to Hepatitis B virus. Nature of the assay: Antiviral activity against Hepatitis B virus infected in human HepG2.2.15 cells assessed as inhibition of HBsAg secretion at 5 uM after 9 days by ELISA relative to control. Conditions: HepG2.2.15, 216 h.
For assay [3], the system named is HepG2 2.2.15. In words: Cytotoxicity against human HepG2.2.15 cells after 9 days by MTT assay. To be noted: HepG2 2.2.15, 216 h. Background: Tetrazolium assays rely on reduction of a dye to a coloured formazan, in cell work by metabolically active cells.
Assay [4] concerns Hepatitis B virus. In words: Antiviral activity against Hepatitis B virus infected in human HepG2.2.15 cells assessed as inhibition of HBeAg secretion at 20 uM after 9 days by ELISA relative to control. To be noted: HepG2.2.15, 216 h.
Assay [5] relates to Hepatitis B virus. In words: Antiviral activity against Hepatitis B virus infected in human HepG2.2.15 cells assessed as inhibition of HBsAg secretion at 20 uM after 9 days by ELISA relative to control. Conditions: HepG2.2.15, 216 h.
In assay [6] the test system is Hepatitis B virus. Nature of the assay: Antiviral activity against Hepatitis B virus infected in human HepG2.2.15 cells assessed as inhibition of intracellular HBV DNA level at 20 uM measured on day 9 by FQ-PCR analysis. Conditions: HepG2.2.15, 216 h.
The test system of assay [7] is Hepatitis B virus. In words: Antiviral activity against Hepatitis B virus harboring rtV173L/L180M/M204V mutant infected in HepGRL1 cells assessed as inhibition of intracellular HBV DNA level at 20 uM measured on day 9 by FQ-PCR analysis relative to control. Conditions: 216 h.
Assay [8] concerns Hepatitis B virus. In words: Antiviral activity against Hepatitis B virus harboring rtV173L/L180M/M204V mutant infected in HepGRL1 cells assessed as inhibition of intracellular HBV DNA level at 20 uM measured on day 6 by FQ-PCR analysis relative to control. Conditions: 144 h.
In assay [9] the test system is Hepatitis B virus. Nature of the assay: Antiviral activity against Hepatitis B virus infected in human HepG2.2.15 cells assessed as intracellular HBV DNA levels at 20 uM measured on day 6 by FQ-PCR analysis. To be noted: HepG2.2.15, 144 h.
The test system of assay [10] is Duck hepatitis B virus. Nature of the assay: Antiviral activity against DHBV infected in duck assessed as inhibition of viral DNA level in serum at 10 mg/kg, po administered once daily measured on day 10 by SYBR Green I dye-based FQ-PCR analysis relative to control. To be noted: 240 h.
Assay [11] has as its system Duck hepatitis B virus. Nature of the assay: Antiviral activity against DHBV infected in duck assessed as inhibition of viral DNA level in serum at 10 mg/kg, po administered once daily measured on day 15 by SYBR Green I dye-based FQ-PCR analysis relative to control. Conditions: 360 h.
Assay [12] deals with Duck hepatitis B virus. Nature of the assay: Antiviral activity against DHBV infected in duck assessed as inhibition of viral DNA level in liver at 10 mg/kg, po administered once daily measured on day 10 by SYBR Green I dye-based FQ-PCR analysis relative to control. Conditions: 240 h.
Assay [13] has as its system Duck hepatitis B virus. In words: Antiviral activity against DHBV infected in duck assessed as inhibition of viral DNA level in liver at 10 mg/kg, po administered once daily measured on day 15 by SYBR Green I dye-based FQ-PCR analysis relative to control. To be noted: 360 h.

Regarding `[N-]=[N+]=N[C@]1(CO)O[C@@H](n2cc(-c3nnn[nH]3)nn2)[C@@H](F)[C@@H]1O`, the inhibition at 5 µM in assay [1] was 20%; in [2], 40%. Further, the CC50 in [3] was > 1000 µM.

With `Nc1ccn([C@@H]2CS[C@H](CO)O2)c(=O)n1` [LAMIVUDINE], the inhibition at 20 µM in assay [4] stood at 22.1%; in [5] it was 47.7%; in [6] it was 85.7%; in assay [7] it was 12.9%; in assay [8], 10.8%; in assay [9], 75.4%. For the same compound, the CC50 in [3] was > 1000 µM. For the same compound, the inhibition in vivo at 10 mg/kg in assay [10] worked out at 65.2%; in assay [11], 85.7%; in assay [12] it was 57.1%; in assay [13], 75.6%.

On to `[N-]=[N+]=N[C@]1(CO)O[C@@H](n2cc(CO)nn2)[C@@H](F)[C@@H]1O`, for which the inhibition at 5 µM in assay [1] was determined as 10.8%; in assay [2], 21.5%. Further, in assay [3], the CC50 was > 1000 µM.

In the case of `CNC(=N)c1cn([C@@H]2O[C@@](CO)(N=[N+]=[N-])[C@@H](O)[C@@H]2F)nn1`, the inhibition at 5 µM in [1] stood at 13.8%; in [2], 22.2%. Further, the CC50 in assay [3] was > 1000 µM.

In general, inhibition refers to the share of the control response that was lost under treatment. As a reminder, the CC50 is the concentration giving 50% cytotoxicity. For orientation: inhibition in vivo means the relative decrease from the control value, in per cent.

For the origin of these results see ChEMBL document CHEMBL4251574, “Design, synthesis, and biological evaluation of new 1,2,3-triazolo-2'-deoxy-2'-fluoro- 4'-azido nucleoside derivatives as potent anti-HBV agents” (Eur J Med Chem, 2018).
